From ChEMBL document CHEMBL3046390, “Multifunctionalised benzoxazinones in the systems Oryza sativa-Echinochloa crus-galli and Triticum aestivum-Avena fatua as natural-product-based herbicide leads” (Pest Manag Sci, 2010) come the findings set out here.

In series [1] the test system is Avena fatua. Put plainly: Herbicidal activity against Avena fatua assessed as inhibition of seed germination at 0.05 uM to 1 mM after 5 days relative to control. The series is classed as functional, organism-based.
Series [2] relates to Echinochloa crus-galli. Put plainly: Herbicidal activity against Echinochloa crus-galli (barnyard grass) assessed as inhibition of shoot length at 0.05 uM to 1 mM after 5 days relative to control. The series is classed as functional, organism-based.
The test system of series [3] is Triticum aestivum. As to the kind of experiment: Phytotoxicity against Triticum aestivum (wheat) assessed as inhibition of seed germination at 10 uM to 1 mM after 5 days relative to control. The conditions noted are these: in vivo, 120 h. The series is classed as organism-based.
The test system of series [4] is Echinochloa crus-galli. Put plainly: Herbicidal activity against Echinochloa crus-galli (barnyard grass) assessed as inhibition of root length after 5 days relative to control. The series is classed as functional, organism-based. The conditions noted are these: 120 h.
Series [5] has as its system Triticum aestivum. As to the kind of experiment: Phytotoxicity against Triticum aestivum (wheat) assessed as inhibition of root elongation after 5 days relative to control. The series is classed as organism-based. The note with it: 120 h.
Series [6] can be described thus: Selectivity idex, ratio of IC50 for root elongation in Triticum aestivum to IC50 for root elongation in Avena fatua.
Series [7] has as its system Oryza sativa. As to the kind of experiment: Phytotoxicity against Oryza sativa (rice) assessed as inhibition of seed germination at 10 uM to 1 mM after 7 days relative to control. The series is classed as organism-based. The conditions noted are these: in vivo, 168 h.
For series [8], the system named is Avena fatua. Put plainly: Herbicidal activity against Avena fatua assessed as inhibition of shoot length at 0.05 uM to 1 mM after 5 days relative to control. The series is classed as functional, organism-based.
The nature of series [9]: Selectivity idex, ratio of IC50 for root elongation in Oryza sativa to IC50 for root elongation in Echinochloa crus-galli.
Series [10] has as its system Oryza sativa. As to the kind of experiment: Phytotoxicity against Oryza sativa (rice) assessed as inhibition of root elongation after 7 days relative to control. The series is classed as organism-based. The note with it: 168 h.
Series [11] deals with Echinochloa crus-galli. Put plainly: Herbicidal activity against Echinochloa crus-galli (barnyard grass) assessed as inhibition of seed germination at 0.05 uM to 1 mM after 5 days relative to control. The series is classed as functional, organism-based.
Series [12] deals with Avena fatua. Put plainly: Herbicidal activity against Avena fatua assessed as inhibition of root length after 5 days relative to control. The series is classed as functional, organism-based. The note with it: 120 h.
Series [13] in a line: Phytotoxicity against Oryza sativa (rice) assessed as inhibition of root elongation at 52 uM after 7 days relative to control. The series is classed as organism-based. The note with it: in vivo.
In series [14] the test system is Echinochloa crus-galli. Put plainly: Herbicidal activity against Echinochloa crus-galli (barnyard grass) assessed as inhibition of root elongation at 52 uM after 5 days relative to control. The note with it: 120 h. The series is classed as functional.
In series [15] the test system is Echinochloa crus-galli. As to the kind of experiment: Ratio of Contanil IC50 to compound IC50 for root elongation in Echinochloa crus-galli (barnyard grass). The series is classed as functional.
Series [16] deals with Avena fatua. As to the kind of experiment: Herbicidal activity against Avena fatua assessed as inhibition of root elongation at 114 uM after 5 days relative to control. The series is classed as functional. The note with it: 120 h.
Series [17] can be described thus: Phytotoxicity against Triticum aestivum (wheat) assessed as inhibition of root elongation at 114 uM after 5 days relative to control. The series is classed as organism-based. The conditions noted are these: in vivo.

Activity calls are given as the source filed them. No cut-off for these calls is given here.

As for `O=C1C(c2ccccc2)Oc2ccc(F)cc2N1O` [6-F-2-Ph-D-DIBOA], the inhibition entry in the series with Avena fatua [1], with Echinochloa crus-galli [2], with Avena fatua [8] and with Echinochloa crus-galli [11] was “Active” each time. For the same molecule, the Activity result with Triticum aestivum [3] and in the series with Oryza sativa [7] was “Non-toxic” each time. In addition, the IC50 came out at 211 µM with Echinochloa crus-galli [4], 641 µM in the series on Triticum aestivum [5], 1240 µM with Oryza sativa [10] and 176 µM with Avena fatua [12]. For the same molecule, the Ratio IC50 in series [6] is 3.65; in series [9] it was 5.86.

In the case of `CCCCC(=O)ON1C(=O)COc2ccc(Cl)cc21` [6-Cl-4-Val-D-DIBOA], the inhibition result with Avena fatua [1], in the series on Echinochloa crus-galli [2], with Avena fatua [8] and with Echinochloa crus-galli [11] was “Active” throughout. The Activity result with Triticum aestivum [3] and in the series on Oryza sativa [7] was “Non-toxic” in each case. For the same molecule, the IC50 was 14 µM in the series with Echinochloa crus-galli [4], 26.6 µM in the series on Triticum aestivum [5], 2 µM in the series with Oryza sativa [10] and 3.54 µM in the series on Avena fatua [12]. In addition, the Ratio IC50 was found to be 7.52 in series [6] and 0.16 in series [9].

Take `CCCC1Oc2ccc(Cl)cc2N(O)C1=O` [6-Cl-2-Pr-D-DIBOA]: the inhibition result with Avena fatua [1], with Echinochloa crus-galli [2], in the series on Avena fatua [8] and in the series with Echinochloa crus-galli [11] was “Active” throughout. Further, the Activity result with Triticum aestivum [3] and in the series on Oryza sativa [7] was “Non-toxic” throughout. For the same molecule, the IC50 in the series on Echinochloa crus-galli [4] worked out at 131 µM; with Triticum aestivum [5], 470 µM; in the series with Oryza sativa [10], 156 µM; with Avena fatua [12], 123 µM. For the same molecule, the Ratio IC50 was 3.82 in series [6] and 1.19 in series [9].

On to `CCC(=O)ON1C(=O)COc2ccc(Cl)cc21`, for which the inhibition entry in the series on Avena fatua [1], in the series with Echinochloa crus-galli [2], in the series with Avena fatua [8] and in the series on Echinochloa crus-galli [11] was “Active” each time. Also, the Activity entry in the series on Triticum aestivum [3] and with Oryza sativa [7] was “Non-toxic” each time. Moreover, the IC50 in the series with Echinochloa crus-galli [4] turned out to be 14 µM; in the series on Triticum aestivum [5] it was 46.6 µM; with Oryza sativa [10] it was 3 µM; in the series with Avena fatua [12] it was 19.3 µM. The Ratio IC50 in series [6] amounted to 2.42; in [9], 0.2.

On to `CCC1Oc2ccc(Cl)cc2N(O)C1=O` [6-Cl-2-Et-D-DIBOA], for which the inhibition entry with Avena fatua [1], in the series on Echinochloa crus-galli [2], with Avena fatua [8] and in the series on Echinochloa crus-galli [11] was “Active” throughout. The Activity result with Triticum aestivum [3] and in the series with Oryza sativa [7] was “Non-toxic” each time. Moreover, the IC50 with Echinochloa crus-galli [4] came to 840 µM; in the series on Triticum aestivum [5], 130 µM; in the series on Oryza sativa [10], 56 µM; in the series with Avena fatua [12], 466 µM. The Ratio IC50 in [6] worked out at 0.28; in [9], 0.07.

`O=C1C(c2ccccc2)Oc2ccc(Cl)cc2N1O` [6-Cl-2-Ph-D-DIBOA]: the inhibition entry in the series with Avena fatua [1], with Echinochloa crus-galli [2], with Avena fatua [8] and with Echinochloa crus-galli [11] was “Active” throughout. The Activity entry in the series on Triticum aestivum [3] and with Oryza sativa [7] was “Non-toxic” throughout. For the same molecule, the IC50 with Echinochloa crus-galli [4] was 94 µM; with Triticum aestivum [5] it was 690 µM; with Oryza sativa [10] it was 992 µM; in the series on Avena fatua [12], 197 µM. The Ratio IC50 in series [6] came to 3.51; in series [9], 10.5.

With `CCC(=O)ON1C(=O)COc2c(Cl)cccc21` [8-Cl-4-Pr-D-DIBOA], the inhibition result with Avena fatua [1], in the series on Echinochloa crus-galli [2], in the series on Avena fatua [8] and in the series on Echinochloa crus-galli [11] was “Active” throughout. The Activity result with Triticum aestivum [3] and in the series with Oryza sativa [7] was “Non-toxic” each time. Also, the inhibition at 168 h, 52 µM in [13] stood at 8%. The IC50 came out at 52 µM in the series on Echinochloa crus-galli [4], 1300 µM in the series with Triticum aestivum [5], 859 µM in the series with Oryza sativa [10] and 321 µM in the series with Avena fatua [12]. The Ratio IC50 is 4.06 in series [6] and 16.6 in series [9]. The inhibition at 52 µM with Echinochloa crus-galli [14] was found to be 70%.

With `CCCC1Oc2ccc(F)cc2N(O)C1=O` (stereo unspecified), the inhibition entry in the series with Avena fatua [1], in the series with Echinochloa crus-galli [2], in the series on Avena fatua [8] and in the series on Echinochloa crus-galli [11] was “Active” each time. For the same molecule, the Activity result in the series on Triticum aestivum [3] and with Oryza sativa [7] was “Non-toxic” each time. For the same molecule, the IC50 amounted to 183 µM in the series on Echinochloa crus-galli [4], 766 µM with Triticum aestivum [5], 337 µM in the series with Oryza sativa [10] and 160 µM in the series with Avena fatua [12]. Besides, the Ratio IC50 in [6] was found to be 4.78; in [9], 1.85.

With `CCCCC(=O)ON1C(=O)COc2ccc(F)cc21` [6-F-4-Val-D-DIBOA], the inhibition entry in the series with Avena fatua [1], in the series on Echinochloa crus-galli [2], in the series with Avena fatua [8] and in the series with Echinochloa crus-galli [11] was “Active” in each case. Besides, the Activity entry in the series with Triticum aestivum [3] and with Oryza sativa [7] was “Non-toxic” throughout. The IC50 came to 8 µM with Echinochloa crus-galli [4], 58.2 µM in the series with Triticum aestivum [5], 6 µM in the series on Oryza sativa [10] and 6.53 µM in the series with Avena fatua [12]. In addition, the Ratio IC50 came to 8.92 in [6], 12 with Echinochloa crus-galli [15] and 0.78 in series [9].

Consider `O=C1C(c2ccccc2)Oc2c(Cl)cccc2N1O` [8-Cl-2-Ph-D-DIBOA], for which the inhibition entry in the series on Avena fatua [1], in the series with Echinochloa crus-galli [2], in the series with Avena fatua [8] and in the series with Echinochloa crus-galli [11] was “Active” in each case. The Activity result in the series on Triticum aestivum [3] and with Oryza sativa [7] was “Non-toxic” each time. The IC50 in the series with Echinochloa crus-galli [4] turned out to be 109 µM; with Triticum aestivum [5] it was 263 µM; in the series on Oryza sativa [10] it was 384 µM; in the series on Avena fatua [12], 150 µM. The Ratio IC50 in [6] is 1.75; in series [9] it was 3.51.

Turning to `CCCCC(=O)ON1C(=O)COc2c(Cl)cccc21`, the inhibition result with Avena fatua [1], in the series on Echinochloa crus-galli [2], in the series with Avena fatua [8] and with Echinochloa crus-galli [11] was “Active” throughout. The Activity entry in the series with Triticum aestivum [3] and in the series on Oryza sativa [7] was “Non-toxic” each time. In addition, the IC50 is 64 µM in the series with Echinochloa crus-galli [4], 1640 µM in the series on Triticum aestivum [5], 712 µM with Oryza sativa [10] and 114 µM with Avena fatua [12]. Moreover, the inhibition at 114 µM in the series on Avena fatua [16] is 70%. Besides, the Ratio IC50 in series [6] came out at 14.4; in [9], 11.1. Moreover, the inhibition at 120 h, 114 µM in [17] was 18%.

For the molecule `CCC1Oc2ccc(F)cc2N(O)C1=O` [6-F-2-Et-D-DIBOA], the inhibition entry with Avena fatua [1], in the series on Echinochloa crus-galli [2], in the series with Avena fatua [8] and in the series with Echinochloa crus-galli [11] was “Active” throughout. Also, the Activity result in the series on Triticum aestivum [3] and with Oryza sativa [7] was “Non-toxic” each time. In addition, the IC50 in the series on Echinochloa crus-galli [4] came out at 25 µM; in the series on Triticum aestivum [5] it was 63.1 µM; in the series on Oryza sativa [10] it was 15 µM; in the series on Avena fatua [12], 24.4 µM. Moreover, the Ratio IC50 in series [6] worked out at 2.59; in series [9], 0.58.

Turning to `CCC(=O)Nc1ccc(Cl)c(Cl)c1` [PROPANIL], the Activity result in the series on Triticum aestivum [3] and with Oryza sativa [7] was “Non-toxic” in each case. In addition, the Ratio IC50 in [9] came out at 1.87.

In the case of `CCC1Oc2c(Cl)cccc2N(O)C1=O` [8-Cl-2-Et-D-DIBOA], the inhibition entry in the series with Avena fatua [1], in the series with Echinochloa crus-galli [2], in the series on Avena fatua [8] and in the series with Echinochloa crus-galli [11] was “Active” in each case. Further, the Activity entry in the series with Triticum aestivum [3] and in the series with Oryza sativa [7] was “Non-toxic” each time. The IC50 in the series on Echinochloa crus-galli [4] amounted to 145 µM; in the series with Triticum aestivum [5] it was 345 µM; in the series with Oryza sativa [10], 305 µM; in the series on Avena fatua [12], 154 µM. The Ratio IC50 in [6] was 2.25; in series [9], 2.11.

In the case of `CCCC1Oc2c(Cl)cccc2N(O)C1=O` [8-Cl-2-Pr-D-DIBOA], the inhibition entry in the series on Avena fatua [1], in the series on Echinochloa crus-galli [2], in the series on Avena fatua [8] and with Echinochloa crus-galli [11] was “Active” in each case. Moreover, the Activity result in the series on Triticum aestivum [3] and in the series on Oryza sativa [7] was “Non-toxic” in each case. Further, the IC50 was 83 µM with Echinochloa crus-galli [4], 393 µM in the series on Triticum aestivum [5], 614 µM in the series on Oryza sativa [10] and 73.2 µM with Avena fatua [12]. The Ratio IC50 in series [6] was 5.37; in [9], 7.44.
